Experimental data published in article PMC5769417, “Single- and Multiple-Dose Trials to Determine the Pharmacokinetics, Safety, Tolerability, and Sex Effect of Oral Ginsenoside Compound K in Healthy Chinese Volunteers” (Frontiers in Pharmacology, 2018).

System: healthy Chinese volunteers
Assay: Multiple-dose trial, safety and tolerability (adverse events)
Format: in vivo, human
Procedure: Multiple-dose pharmacokinetics: The multiple-dose trial could be carried out on the condition that a single-dose of CK (25–800 mg) was safe and well tolerated in healthy Chinese volunteers. After breakfast, one of three doses (100, 200, or 400 mg) of CK or placebo were given to 36 eligible subjects randomized to each dose (male:female = 1:1), in which 10 were on active treatment and 2 were on matching placebo. CK were administered as a single dose on day 1 and then as repeated doses for 9 consecutive days (days 7–15 of the trial), and the drug was administered once-daily in the morning after meals.
Safety was evaluated by continuous observation of adverse events (AEs), monitoring of vital signs, ECG, hematology, biochemistry, and urinalysis at baseline, during the trials at the set time points following drug administration, and at follow-up visits after study completion. AEs were classified by their intensity into mild, moderate and severe. Additionally, the AEs were also classified according their relationship to the test drug as positive, probable, possible, remote, or unrelated. The severity of the AEs, as well as their relationship to test drug, was assessed by a qualified physician in the unit. Clinically relevant changes in vital signs, ECG and laboratory parameters were defined as marked abnormalities. ECG were recorded in the semisupine position after a rest of at least 5 min. It is worth noting that all the information, including symptoms and signs after dosing or the medications that the subjects were concomitantly taking must be recorded on the case-report form by investigators. All available data from subjects who received the test drug and placebo were included in the summaries of the safety data and were descriptively analyzed. In addition, the differences between laboratory parameters at baseline and after drug treatment were analyzed to determine whether there were clinical significances.
All the safety data, including vital signs, laboratory indexes and ECG, were descriptively analyzed, and the statistical analyses were conducted to evaluate the effects of the test drug by comparing the differences between before and after drug treatment, between the test drug group and the placebo group and among the different dose groups.

CC(C)=CCC[C@](C)(OC1O[C@H](CO)[C@@H](O)[C@H](O)[C@H]1O)[C@H]1CC[C@]2(C)[C@@H]1[C@H](O)C[C@@H]1[C@@]3(C)CC[C@H](O)C(C)(C)[C@@H]3CC[C@]12C (stereo partly drawn) [CK, 20-O-beta-D-glucopyranosyl-20(S)-protopanaxadiol]
AEs positively relevant to CK: 20 cases
AEs possibly related to CK: 14 cases
AEs probably related to CK: 23 cases
Alkaline phosphatase increased (study drug-related AE) (100 mg (n = 10)): 0 number of subjects (%)
Any AEs (study drug-related) (100 mg (n = 10)): 7 (19.4) number of subjects (%)
Bellyache (study drug-related AE) (100 mg (n = 10)): 0 number of subjects (%)
Blood white cells increased (study drug-related AE) (100 mg (n = 10)): 0 number of subjects (%)
Diarrhea (study drug-related AE) (100 mg (n = 10)): 3 (8.3) number of subjects (%)
Direct bilirubin increased (study drug-related AE) (100 mg (n = 10)): 2 (5.6) number of subjects (%)
Dizziness (study drug-related AE) (100 mg (n = 10)): 4 (11.1) number of subjects (%)
Headache (study drug-related AE) (100 mg (n = 10)): 0 number of subjects (%)
Loss of appetite (study drug-related AE) (100 mg (n = 10)): 2 (5.6) number of subjects (%)
Nausea (study drug-related AE) (100 mg (n = 10)): 1 (2.8) number of subjects (%)
Rash (study drug-related AE) (100 mg (n = 10)): 0 number of subjects (%)
Subcutaneous bleeding (double forearm) (study drug-related AE) (100 mg (n = 10)): 0 number of subjects (%)
Total bilirubin increased (study drug-related AE) (100 mg (n = 10)): 0 number of subjects (%)
Alkaline phosphatase increased (study drug-related AE) (200 mg (n = 10)): 1 (2.8) number of subjects (%)
Any AEs (study drug-related) (200 mg (n = 10)): 10 (27.8) number of subjects (%)
Bellyache (study drug-related AE) (200 mg (n = 10)): 4 (11.1) number of subjects (%)
Blood white cells increased (study drug-related AE) (200 mg (n = 10)): 0 number of subjects (%)
Diarrhea (study drug-related AE) (200 mg (n = 10)): 9 (25) number of subjects (%)
Direct bilirubin increased (study drug-related AE) (200 mg (n = 10)): 1 (2.8) number of subjects (%)
Dizziness (study drug-related AE) (200 mg (n = 10)): 1 (2.8) number of subjects (%)
Headache (study drug-related AE) (200 mg (n = 10)): 0 number of subjects (%)
Loss of appetite (study drug-related AE) (200 mg (n = 10)): 0 number of subjects (%)
Nausea (study drug-related AE) (200 mg (n = 10)): 0 number of subjects (%)
Rash (study drug-related AE) (200 mg (n = 10)): 0 number of subjects (%)
Subcutaneous bleeding (double forearm) (study drug-related AE) (200 mg (n = 10)): 0 number of subjects (%)
Total bilirubin increased (study drug-related AE) (200 mg (n = 10)): 1 (2.8) number of subjects (%)
Alkaline phosphatase increased (study drug-related AE) (400 mg (n = 10)): 0 number of subjects (%)
Any AEs (study drug-related) (400 mg (n = 10)): 9 (25) number of subjects (%)
Bellyache (study drug-related AE) (400 mg (n = 10)): 1 (2.8) number of subjects (%)
Blood white cells increased (study drug-related AE) (400 mg (n = 10)): 0 number of subjects (%)
Diarrhea (study drug-related AE) (400 mg (n = 10)): 9 (25) number of subjects (%)
Direct bilirubin increased (study drug-related AE) (400 mg (n = 10)): 5 (13.9) number of subjects (%)
Dizziness (study drug-related AE) (400 mg (n = 10)): 0 number of subjects (%)
Headache (study drug-related AE) (400 mg (n = 10)): 0 number of subjects (%)
Loss of appetite (study drug-related AE) (400 mg (n = 10)): 0 number of subjects (%)
Nausea (study drug-related AE) (400 mg (n = 10)): 0 number of subjects (%)
Rash (study drug-related AE) (400 mg (n = 10)): 0 number of subjects (%)
Subcutaneous bleeding (double forearm) (study drug-related AE) (400 mg (n = 10)): 1 (2.8) number of subjects (%)
Total bilirubin increased (study drug-related AE) (400 mg (n = 10)): 3 (8.3) number of subjects (%)
